The experiment relates to antibodies to HIV-2. The experiment can be described thus: EIA of HIV-2 peptide-BSA conjugates with macaque sera. In kind it is binding. Particulars: macaque sera containing or not containing antibodies to HIV-2, Figure 7. The method, then: The synthetic peptides of Figures 1-8 were reduced with 10mM DTT, or with immobilized DTT (Reductacryl, Calbiochem, San Diego, California, U.S.A., 10 mg Reductacryl per mg peptide) overnight at 4°C, pH8 in 10mM borate or other buffers depending upon peptide solubility, with gentle mixing. KLH was dissolved at a concentration of 10-30 mg/ml in 10 mM phosphate buffer pH 7.2., and BSA was dissolved at a concentration of 20-80 mg/ml for treatment with heterobifunctional linkers MBS (m-Maleimidobenzoyl-N-hydroxysuccinimide ester), SPDP [N-Succinimidyl 3-(2 pyridyldithio)propionate], or Sulfo-SMCC [Sulfo-Succinimidyl 4(N-maleimidomethyl)-cyclohexane-1-carboxylate]. The heterobifunctional linkers were added to the protein solutions in a molar excess of linker to BSA of 100, or of linker to KLH of 1000. MBS was dissolved in DMF at 10mg/ml, SPDP was dissolved in absolute ethanol at 10mg/ml and each of these was added dropwise with mixing into the protein solution, whereas the Sulfo-SMCC dry powder was dissolved into the protein solution. Each protein-linker mixture was reacted at room temperature for 15 minutes to 1 hour and then free linker was separated from BSA-linker or KLH-linker by gel chromatography with Sephadex G25 using 50mM phosphate, pH 6 for KLH-MBS, 10mM acetate, 100 mM Nacl, pH 4.6 for BSA-SPDP, or 100 mM phosphate, 1 mM EDTA, pH 6.5 for BSA-SMCC. The reduced peptides were separated from DTT by Sephadex G10 column chromatography when soluble DTT was used, or by centrifugation followed by filtration through a 0.22 micron filter when Reductacryl was used. Reduced peptides were combined with linker treated KLH or BSA in molar ratios of 100-1000 peptide/KLH-MBS, 1-50 peptide/BSA-SMCC, and 0.1-10 peptide/BSA-SPDP. Each reduced peptide was added to the linker-treated protein with mixing, overlayed with N₂, and then mixed gently at room temperature for one hour, and then overnight at 4°C. The SMCC-BSA conjugates were further treated with a 1 mM final concentration of mercaptoethylamine for 4 hours, and then dialyzed overnight against 100 volumes of buffer (20mM phosphate, 1 mM EDTA, 0.05% sodium azide, pH 6.5) at 4°C. All other conjugates were adjusted to a final concentration of sodium azide of 0.05%. Optimal molar ratios of peptide/protein for the conjugates were determined by solubility and antigenicity (as evaluated by EIA).
The free peptides or peptide-protein conjugates of Figures 1-13 were initially screened for immunoreactivity by coating each well of polystyrene microtiter EIA plates (Costar, Cambridge, Massachusetts, U.S.A.) with 0.2 ml amounts of concentrations of 5-50 micrograms/ml peptide in Tris buffer, 10 mM, pH 8.0, at 4°C overnight. […]

On to ARLNSWGCAFRQVCHGC [2S25], for which the “discrimination of positive from negative samples” value was “most favorable performances”.

The record behind these values is patent EP0449955B1, “SYNTHETIC HIV-LIKE PEPTIDES, THEIR COMPOSITIONS AND USES” (CLARITY TECHNOLOGIES INCORPORATED, priority 1988, dated 1996).
